Our source for the Km values is publication PMC6986724, “Crystal structure of PMGL2 esterase from the hormone-sensitive lipase family with GCSAG motif around the catalytic serine” (PLoS ONE, 2020).

For orientation: Km means the concentration of substrate that gives half-maximal velocity.

In the assay the target is T1, PMGL2 (uncultured bacterium, UniProt Z9SFY5SHV8, S173T/C202S, form not given).
T1 construct: recombinant, cloned into pET32a, poly-His tag; homodimer; GCSAG motif 172-176, catalytic Ser174, Asp272, His302; 319 residues visible in the mutant crystal
T1 sequence (Z9SFY5SHV8 1-343 S173T/C202S): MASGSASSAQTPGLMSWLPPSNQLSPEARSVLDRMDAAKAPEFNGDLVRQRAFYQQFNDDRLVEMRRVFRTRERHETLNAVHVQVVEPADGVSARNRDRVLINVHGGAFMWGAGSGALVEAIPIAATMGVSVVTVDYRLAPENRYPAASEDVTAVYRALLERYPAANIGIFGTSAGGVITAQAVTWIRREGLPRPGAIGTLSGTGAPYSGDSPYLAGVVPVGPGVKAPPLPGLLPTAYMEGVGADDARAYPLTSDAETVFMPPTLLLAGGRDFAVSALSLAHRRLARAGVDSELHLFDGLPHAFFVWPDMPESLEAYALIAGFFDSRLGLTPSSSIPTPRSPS
As to the kind of experiment: esterase kinetics. It is filed as biochemical. To be noted: 25 °C.

Each structure is given as a SMILES string.

Take `CCCC(=O)Oc1ccc([N+](=O)[O-])cc1` [p-nitrophenyl butyrate]: the Km stood at 450 µM.
